Reference: patent publication US20170138969A1, “System And Method For Measuring Permeability Of Drugs/Toxic/Chemical Compounds” (Indian Institute Of Technology Madras, priority 2014, published 2017)

Experiment: Membrane integrity test in lipid monolayer (LB) PAMPA system
Format: in vitro ADME
Protocol: FIG. 3-4 illustrates graphs 300-400 illustrating the membrane integrity test, in accordance with the disclosed embodiments. The membrane integrity test can be performed according to the standard protocol. An 80 μl aqueous solution containing Lucifer yellow (LY) and Brilliant Cresyl Blue (BCB) in the ratio 1:9 is added into the donor well. The PAMPA system can be assembled and incubated for 5 hours at 25° C. The acceptor plate and donor well are separated and concentration of LY and BCB was analyzed by measuring; Fluorescence: Excitation wavelength @428 mn; Emission wavelength @525 nm; Absorbance; at 610 nm for BCB.
FIG. 3 illustrates the graph 300 showing the permeation of BCB as 0.045; Absorbance units after 5 hours of incubation indicating the presence of integral membrane. Similarly, the graph 400 illustrates the rejection of Lucifer Yellow after 5 hours of incubation indicating the presence of integral membrane. The rejection of Lucifer yellow indicates the presence of an integral membrane.

Substance | permeation of BCB (absorbance at 610 nm, acceptor) (PAMPA) [Absorbance units] | permeation/rejection of Lucifer Yellow (fluorescence, excitation 428 / emission 525 nm) (LY:BCB 1:9 aqueous solution, 80 μl in donor well, after 5 hours of incubation at 25° C.)
Brilliant Cresyl Blue [BCB] | 0.045 | 
Lucifer yellow |  | rejection
